Assays:
PBMC = format: cell-based
MCF7 cells = format: cell-based

Substance: SLO
- recovered Fc versus native Fc (PBMC): drops to a lower value than the native Fc
- dose dependence of change in Fc (MCF7 cells): the higher the dose, the bigger the change in the Fc
- recovered Fc versus native Fc (MCF7 cells): increases higher than the native Fc

From patent US9683253B2, “Method and device for identifying cells” (IMEC, priority 2013, dated 2017)
